Laboratory results: US12403137B2, “Compounds and methods of use” (Tango Therapeutics, Inc., priority 2019, dated 2025)

Assays:
PRMT5 [1] = molecular target: T1, PRMT5 (Homo sapiens, UniProt O14744); test: PRMT5 inhibition assay with MTA as cofactor; format: biochemical; settings: against PRMT5 with MTA as cofactor
T1 construct: purchased Viva (custom protein)
Description: The Ki values can be calculated from the IC50 values as described in the Examples section. As detailed in the Examples section, for the assay performed in the presence of SAM, IC50=Ki×1.5 (Ki=IC50/1.5). For the assay performed in the presence of MTA, IC50=Ki×13.5 (Ki=IC50/13.5). Column 6 indicates the ratio between the Ki of compounds in the presence of SAM and the Ki of compounds in the presence of MTA

[2] = tested on: HAP1 MTAP-deleted cell line; test: SDMA in-cell western assay, HAP1 MTAP-deleted; format: cell-based; settings: for IC50: Homo sapiens, HAP1 MTAP-deleted (MTAP-null) cell line; for MTAP Intact/Deleted Ratio: IC50 ratio HAP1 MTAP-intact / HAP1 MTAP-deleted, >=3 fold considered MTAP-selective
Protocol: (§1) Table 1 also indicates IC50 values in an MTAP-isogenic cell line pair for exemplary compounds in an SDMA in-cell western assay (columns 7-8). HAP1 MTAP-intact is a cell line in which endogenous levels of MTAP are expressed, and HAP1 MTAP-deleted is an MTAP-null cell line. For Table 1, “a*” and “aa*” indicates an IC50 of <1 μM, “b*” and “bb*” indicates an IC50 equal to or greater than 1 μM but less than 10 μM, and “c*” and “cc*” indicates an IC50 of greater than or equal to 10 μM in the HAP1 MTAP-intact and the HAP1 MTAP-deleted assays, respectively. In column 9, “A*” indicates an IC50 ratio greater than or equal to 10 fold between the IC50 in the HAP1 MTAP-intact cell line and the HAP1 MTAP-deleted cell line; “B*” indicates an IC50 ratio greater than or equal to 3 fold but lower than 10 fold between the IC50 in the HAP1 MTAP-intact cell line and the HAP1 MTAP-deleted cell line; “C*” indicates an IC50 ratio of less than 3 fold between the IC50 in the HAP1 MTAP-intact cell line and the HAP1 MTAP-deleted cell line. Compounds with a ratio in the SDMA in-cell western assay of equal to or greater than 3 fold are considered MTAP-selective.

PRMT5 [3] = molecular target: T1, PRMT5; test: PRMT5 inhibition assay with no cofactor; format: biochemical; settings: against PRMT5 with no cofactor; read-out: No Co-factor IC50
[4] = tested on: HAP1 MTAP-intact cell line; test: SDMA in-cell western assay, HAP1 MTAP-intact; format: cell-based; settings: for IC50: Homo sapiens
Protocol: as §1

T1 sequence (O14744 whole entry): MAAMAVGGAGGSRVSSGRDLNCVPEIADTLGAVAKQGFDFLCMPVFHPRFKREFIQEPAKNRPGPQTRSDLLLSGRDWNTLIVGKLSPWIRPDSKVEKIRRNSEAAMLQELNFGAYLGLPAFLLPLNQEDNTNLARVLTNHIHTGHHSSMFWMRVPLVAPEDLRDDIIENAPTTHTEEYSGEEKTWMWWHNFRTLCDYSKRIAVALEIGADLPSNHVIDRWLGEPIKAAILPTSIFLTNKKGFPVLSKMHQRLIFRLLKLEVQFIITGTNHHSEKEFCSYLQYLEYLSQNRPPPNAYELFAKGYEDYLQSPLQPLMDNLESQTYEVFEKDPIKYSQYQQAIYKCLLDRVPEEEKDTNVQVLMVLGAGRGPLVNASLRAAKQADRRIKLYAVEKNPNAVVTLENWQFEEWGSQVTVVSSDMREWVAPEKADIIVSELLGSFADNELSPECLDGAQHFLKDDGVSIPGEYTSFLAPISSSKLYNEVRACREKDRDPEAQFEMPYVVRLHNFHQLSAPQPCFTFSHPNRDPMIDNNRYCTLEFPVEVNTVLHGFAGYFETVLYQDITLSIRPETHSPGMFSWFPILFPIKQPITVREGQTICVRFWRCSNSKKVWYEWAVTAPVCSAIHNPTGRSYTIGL
T1 sequence (Q9BQA1 whole entry partner): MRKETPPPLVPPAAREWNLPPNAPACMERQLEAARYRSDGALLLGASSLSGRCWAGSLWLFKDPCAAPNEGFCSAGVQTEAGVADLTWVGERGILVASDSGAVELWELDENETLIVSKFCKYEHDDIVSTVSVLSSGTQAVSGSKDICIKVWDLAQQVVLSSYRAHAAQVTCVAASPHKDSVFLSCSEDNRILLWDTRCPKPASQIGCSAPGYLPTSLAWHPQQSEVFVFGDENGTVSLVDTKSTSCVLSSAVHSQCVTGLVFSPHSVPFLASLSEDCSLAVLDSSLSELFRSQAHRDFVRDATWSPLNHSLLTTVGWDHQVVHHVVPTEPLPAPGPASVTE

IC50 (PRMT5 [1])	IC50 [2]	IC50 (PRMT5 [3])	IC50 [4]	HAP1 MTAP Intact IC50 [4]	Compound	MTAP Intact/Deleted Ratio [2]
< 50 nM	< 1000 nM	50 to 500 nM	–	–	COc1ccc(C(=O)N2CCc3cc(C(=O)NC[C@@H](O)[C@@H]4Cc5ccc(OCc6cnco6)cc5CN4)ccc3C2)cc1 [Compound 74, N-[(2R)-2-hydroxy-2-[(3S)-7-(oxazol-5-ylmethoxy)-1,2,3,4-tetrahydroisoquinolin-3-yl]ethyl]-2-(4-methoxybenzoyl)-3,4-dihydro-1H-isoquinoline-6-carboxamide]	–
< 50 nM	1000 to 10000 nM	50 to 500 nM	≥ 10 µM	–	COCCN(C)c1cc(C(=O)NC[C@@H](O)[C@@H]2Cc3ccc(OCc4ocnc4C)cc3CN2)cc(NC2CN(C(C)=O)C2)n1 [Compound 69]	C* (an IC50 ratio of less than 3 fold between the IC50 in the HAP1 MTAP-intact cell line and the HAP1 MTAP-deleted cell line)
< 50 nM	–	< 50 nM	–	–	Cc1ncoc1COc1ccc2c(c1)CN[C@H]([C@H](O)CNC(=O)c1cc(NC3CC4(CCC4)C3)nc(N3CCN(C(=O)C4CC4)CC3)n1)C2 [Compound 84]	–
< 50 nM	< 1000 nM	50 to 500 nM	–	B*	CC(=O)N1CCC(Nc2cc(C(=O)NC[C@@H](O)[C@@H]3Cc4ccc(OCc5ocnc5C)cc4CN3)nc(N3CCN(C(C)C)CC3)n2)CC1 [Compound 72]	A* (an IC50 ratio greater than or equal to 10 fold between the IC50 in the HAP1 MTAP-intact cell line and the HAP1 MTAP-deleted cell line)
–	< 1000 nM	–	≥ 10 µM	–	Cc1ncoc1COc1ccc2c(c1)CN[C@H]([C@H](O)CNC(=O)c1ccnc(NC3CCC3)c1)C2 [Compound 15, 2-(cyclobutylamino)-N—((R)-2-hydroxy-2-((S)-7-((4-methyloxazol-5-yl)methoxy)-1,2,3,4-tetrahydroisoquinolin-3-yl)ethyl)isonicotinamide]	–
< 50 nM	< 1000 nM	50 to 500 nM	1 to 10 µM	–	COCCN(C)c1nc(NC2CCN(C(C)=O)CC2)cc(C(=O)NC[C@@H](O)[C@@H]2Cc3ccc(OCc4ocnc4C)cc3CN2)n1 [Compound 79]	A* (an IC50 ratio greater than or equal to 10 fold between the IC50 in the HAP1 MTAP-intact cell line and the HAP1 MTAP-deleted cell line)
< 50 nM	< 1000 nM	50 to 500 nM	1 to 10 µM	–	COCCN(C)c1cc(C(=O)NC[C@@H](O)[C@@H]2Cc3ccc(OCc4ocnc4C)cc3CN2)cc(NC2CC3(CCC3)C2)n1 [Compound 68]	A* (an IC50 ratio greater than or equal to 10 fold between the IC50 in the HAP1 MTAP-intact cell line and the HAP1 MTAP-deleted cell line)
< 50 nM	1000 to 10000 nM	50 to 500 nM	≥ 10 µM	–	CC(=O)N1CC(Nc2cc(C(=O)NC[C@@H](O)[C@@H]3Cc4ccc(OCc5ocnc5C)cc4CN3)cc(N3CCN(C(C)C)CC3)n2)C1 [Compound 67]	C* (an IC50 ratio of less than 3 fold between the IC50 in the HAP1 MTAP-intact cell line and the HAP1 MTAP-deleted cell line)
< 50 nM	< 1000 nM	50 to 500 nM	1 to 10 µM	–	CC(=O)N1CCC(Nc2cc(C(=O)NC[C@@H](O)[C@@H]3Cc4ccc(OCc5ocnc5C)cc4CN3)nc(N3CCCC3)n2)CC1 [Compound 81]	A* (an IC50 ratio greater than or equal to 10 fold between the IC50 in the HAP1 MTAP-intact cell line and the HAP1 MTAP-deleted cell line)
< 50 nM	1000 to 10000 nM	< 50 nM	≥ 10 µM	–	CC(=O)N1CCC(Nc2cc(C(=O)NC[C@@H](O)[C@@H]3Cc4ccc(OCc5ocnc5C)cc4CN3)cc(N3CCN(C(C)C)CC3)n2)CC1 [Compound 71]	B* (an IC50 ratio greater than or equal to 3 fold but lower than 10 fold between the IC50 in the HAP1 MTAP-intact cell line and the HAP1 MTAP-deleted cell line)
< 50 nM	–	500 to 5000 nM	1 to 10 µM	–	COc1ccc(C(=O)N2CCc3cc(C(=O)NC[C@@H](O)[C@@H]4Cc5ccc(OCc6ccnn6C)cc5CN4)ccc3C2)cc1 [Compound 77, N-[(2R)-2-hydroxy-2-[(3S)-7-[(2-methylpyrazol-3-yl)methoxy]-1,2,3,4-tetrahydroisoquinolin-3-yl]ethyl]-2-(4-methoxybenzoyl)-3,4-dihydro-1H-isoquinoline-6-carboxamide]	–
< 50 nM	–	50 to 500 nM	–	–	CC(=O)N1CC(Nc2cc(C(=O)NCC[C@H]3Cc4ccc(OCc5ocnc5C)cc4CN3)nc(N3CCCCC3)n2)C1 (single isomer, unassigned) [83**]	–
50 to 500 nM	–	500 to 5000 nM	–	–	CC(=O)N1CC(Nc2cc(C(=O)NCC[C@@H]3Cc4ccc(OCc5ocnc5C)cc4CN3)nc(N3CCCCC3)n2)C1 (single isomer, unassigned) [85**]	–
< 50 nM	–	< 50 nM	–	–	Cc1ncoc1COc1ccc2c(c1)CN[C@H]([C@H](O)CNC(=O)c1cc(NC3CC4(CCC4)C3)nc(N3CCN(C(C)C)CC3)n1)C2 [Compound 86]	–

Compound	IC50 (PRMT5 [1])	IC50 [2]	IC50 (PRMT5 [3])	IC50 [4]	HAP1 MTAP Intact IC50 [4]	MTAP Intact/Deleted Ratio [2]
COCCN(C)c1nc(NC2CC3(CCC3)C2)cc(C(=O)NC[C@@H](O)[C@@H]2Cc3ccc(OCc4ocnc4C)cc3CN2)n1 [Compound 80]	–	< 1000 nM	–	1 to 10 µM	–	–
CC(=O)N1CC(Nc2cc(C(=O)NC[C@H](O)[C@@H]3Cc4ccc(OCc5ocnc5C)cc4CN3)nc(N3CCCCC3)n2)C1 [Compound 64]	–	1000 to 10000 nM	–	–	–	–
O=C(NC[C@@H](O)[C@@H]1Cc2ccc(OCc3cnco3)cc2CN1)c1ccnc(NC2CCC2)c1 [Compound 19, 2-(cyclobutylamino)-N—((R)-2-hydroxy-2-((S)-7-(oxazol-5-ylmethoxy)-1,2,3,4-tetrahydroisoquinolin-3-yl)ethyl)isonicotinamide]	–	1000 to 10000 nM	–	≥ 10 µM	–	–
CC(=O)N1CC(Nc2cc(C(=O)NC[C@@H](O)[C@@H]3Cc4ccc(OCc5ocnc5C)cc4CN3)nc(N3CCCCC3)n2)C1 [Compound 22, 6-((1-acetylazetidin-3-yl)amino)-N—((R)-2-hydroxy-2-((S)-7-((4-methyloxazol-5-yl)methoxy)-1,2,3,4-tetrahydroisoquinolin-3-yl)ethyl)-2-(piperidin-1-yl)pyrimidine-4-carboxamide]	–	< 1000 nM	–	1 to 10 µM	–	–
CCOc1cc(C(=O)N2C3CCC2COC3)ccc1C(=O)NC[C@@H](O)[C@@H]1Cc2ccc(OCc3ccncc3)cc2CN1 [Compound 73, 2-ethoxy-N-[(2R)-2-hydroxy-2-[(3S)-7-(4-pyridylmethoxy)-1,2,3,4-tetrahydroisoquinolin-3-yl]ethyl]-4-(3-oxa-8-azabicyclo[3.2.1]octane-8-carbonyl)benzamide]	50 to 500 nM	1000 to 10000 nM	≥ 5000 nM	–	–	–
CCOc1cc(C(=O)N2C3CCC2COC3)ccc1C(=O)NC[C@@H](O)[C@@H]1Cc2ccc(OCc3ccn[nH]3)cc2CN1 [Compound 76, 2-ethoxy-N-[(2R)-2-hydroxy-2-[(3S)-7-(1H-pyrazol-5-ylmethoxy)-1,2,3,4-tetrahydroisoquinolin-3-yl]ethyl]-4-(3-oxa-8-azabicyclo[3.2.1]octane-8-carbonyl)benzamide]	50 to 500 nM	–	500 to 5000 nM	≥ 10 µM	–	–
CC(=O)N1CC2(CC(Nc3cc(C(=O)NC[C@@H](O)[C@@H]4Cc5ccc(OCc6ocnc6C)cc5CN4)nc(N4CCCCC4)n3)C2)C1 [Compound 48, 6-[(2-acetyl-2-azaspiro[3.3]heptan-6-yl)amino]-N-[(2R)-2-hydroxy-2-[(3S)-7-[(4-methyloxazol-5-yl)methoxy]-1,2,3,4-tetrahydroisoquinolin-3-yl]ethyl]-2-(1-piperidyl)pyrimidine-4-carboxamide]	–	< 1000 nM	–	< 1 µM	–	–
Cn1nccc1COc1ccc2c(c1)CN[C@H]([C@H](O)CNC(=O)c1ccnc(NC3CCC3)c1)C2 [Compound 14, 2-(cyclobutylamino)-N—((R)-2-hydroxy-2-((S)-7-((1-methyl-1H-pyrazol-5-yl)methoxy)-1,2,3,4-tetrahydroisoquinolin-3-yl)ethyl)isonicotinamide]	–	< 1000 nM	–	≥ 10 µM	–	–
CC(=O)N1CC(Nc2cc(C(=O)NC[C@@H](O)[C@@H]3Cc4ccc(OCc5ocnc5C)cc4CN3)nc(N3CCC(C)CC3)n2)C1 [Compound 62, 6-[(1-acetylazetidin-3-yl)amino]-N-[(2R)-2-hydroxy-2-[(3S)-7-[(4-methyloxazol-5-yl)methoxy]-1,2,3,4-tetrahydroisoquinolin-3-yl]ethyl]-2-(4-methyl-1-piperidyl)pyrimidine-4-carboxamide]	–	< 1000 nM	–	1 to 10 µM	–	–
